Measured values taken from US9051581B2, “Defense peptides against fungal infection and method of their use” (The Curators of the University of Missouri, priority 2010, dated 2015).

What was measured:
[1] = system: P. pachyrhizi urediniospores; assay: In vitro inhibition of urediniospore germ tube growth by phage-display peptide clones (initial assessment, repeated trials); format: cell-based, Phakopsora pachyrhizi; settings: inhibition = 50% or greater germ tube inhibition after 8 h incubation; 10^13 virions ml^−1; field-collected urediniospores
Method: Representative, affinity-selected, phage-display peptide clones were initially assessed in vitro for the ability to inhibit urediniospore germ tube growth. Two-hundred fifty phage clones, randomly chosen from the final selection round, were amplified by E. coli infection, twice purified using PEG-precipitation, and re-suspended in sterile deionized water. Phage concentrations were calculated from UV absorbance measurements as virions μl^−1 (2).
A 25-μl water droplet containing ≈300 non-germinated urediniospores collected from soybean leaves in Florida was incubated on a microscope slide in the presence of a phage clone at a concentration equivalent to 10^13 virions ml^−1. […] Urediniospores were visualized using an Olympus Stereo Zoom Microscope (model SZH; Olympus Optical Co., LTD, Tokyo, Japan) at 50× magnification under transmitted light. Images of germinating urediniospores were captured in random microscope fields with a Spot Insight Color digital camera (Diagnostic Instruments, Inc., Sterling Heights, Mich.). Images were manipulated for viewing using Spot imaging software (version 4.0.3) set up with auto exposure to provide contrast of developing germ tubes against a green background. Comparative germination was assessed in three separate experiments. Phage clones that induced greater than 50% reduction in germ tube length (by visual estimation) compared to growth in water were evaluated in seven additional experiments.

[2] = system: Phakopsora pachyrhizi urediniospores; assay: In vitro inhibition of urediniospore germ tube growth by ZmCKX1-peptides; format: cell-based; settings: ZmCKX1 scaffold-display format
Method: Purified ZmCKX1-Sp2 and ZmCKX1-Sp39 peptides were assessed in vitro for the ability to inhibit urediniospore germination. A 25-μl water droplet containing 300 freshly harvested MOS-2008 urediniospores was incubated on a glass slide in the presence of either ZmCKX1-Sp2 or ZmCKX1-Sp39. Control treatments included urediniospores incubated in water or in the presence of ZmCKX1 alone. Germ tube growth was visualized over time and quantified by image capture and analyses as described previously.

[3] = system: Phakopsora pachyrhizi urediniospores; assay: Effect of phage-display peptide concentration on urediniospore germ tube elongation in vitro; format: cell-based; settings: for effective peptide concentration equivalent at maximal inhibition, phage-display format: five peptide copies per M13 virion at ≈10^13 virions ml^−1
Method: The bioactivities of two inhibitory phage-display peptide clones, M13-Sp2 and M13-Sp39, identified in initial assessments were estimated over a range of concentrations including 0.5, 1.0, and 1.5×10^13 virions ml^−1. As before, a 25-μl water droplet containing ≈300 urediniospores was incubated at 22° C. (4) on a microscope slide in the presence of M13-Sp2 or M13-Sp39 at each concentration. Urediniospores in these and all subsequent experiments were derived from the Missouri population, MOS-2008. Control treatments included urediniospores incubated either in water or an equivalent concentration of phage from an unselected library. Spore germination and germ tube growth were visualized over time and quantified by image capture and analyses using MetaMorph software (Version 6.2r6, Universal Imaging, Downington, Pa.). Germ tube length was measured using a line scan function based on conversion of image pixels to length. Germ tube length was averaged from 50 randomly selected germinated urediniospores in each image and across four experimental replicates per treatment.

Row | Sequence | Frequency of germ tube inhibition over 10 trials [1] | concentration of maximum germ tube inhibition, displayed on ZmCKX1 scaffold [2] [µM] | effective peptide concentration equivalent at maximal inhibition, phage-display format [3] [nM] | concentration of maximal inhibition of germ tube elongation, phage-display format [3]
1 | ASTIGNLMPGHS (Random peptide insert) [Sp14, 12-mer phage-display selected peptide] | 5 | – | – | –
2 | DHIRISTSYKSP (Random peptide insert) [Sp51, 12-mer phage-display selected peptide] | 3 | – | – | –
3 | DRFTSDLRAPDS (Random peptide insert) [Sp61, 12-mer phage-display selected peptide] | 3 | – | – | –
4 | FDPHEPTNTRSP (Random peptide insert) [Sp15, 12-mer phage-display selected peptide] | 6 | – | – | –
5 | LTKEPATGRAML (Random peptide insert) [Sp18, 12-mer phage-display selected peptide] | 6 | – | – | –
6 | MLESHAWPPRAI (Random peptide insert) [Sp2] | 8 | 115 | 10 | ≈ 10^13 virions ml^−1
7 | STVASLGKPTKI (Random peptide insert) [Sp8, 12-mer phage-display selected peptide] | 4 | – | – | –
8 | TFDRHILDTRGS (Random peptide insert) [Sp6, 12-mer phage-display selected peptide] | 3 | – | – | –
9 | TPTRSLDSPHNM (Random peptide insert) [Sp59, 12-mer phage-display selected peptide] | 4 | – | – | –
10 | YISPLPNAATIS (Random peptide insert) [Sp5, 12-mer phage-display selected peptide] | 3 | – | – | –
11 | YNKPSFQDHSVI (Random peptide insert) [Sp39] | 7 | 115 | 10 | ≈ 10^13 virions ml^−1
